Reference: the Kinase Knowledgebase extract (Sharma et al. 2016)
Several values for one entry are separate records, joined by “and”; a condition that tells them apart may be missing. Equal entries are not always repeated.

Molecular target: MAPK14 (human) (UniProt Q16539)
Assay: Inhibition of LPS Stimulated TNF Production by U937 Cells
Settings: for inhibition: concentration not given here

MAPK14 (human), sequence (Q16539 whole entry, looked up): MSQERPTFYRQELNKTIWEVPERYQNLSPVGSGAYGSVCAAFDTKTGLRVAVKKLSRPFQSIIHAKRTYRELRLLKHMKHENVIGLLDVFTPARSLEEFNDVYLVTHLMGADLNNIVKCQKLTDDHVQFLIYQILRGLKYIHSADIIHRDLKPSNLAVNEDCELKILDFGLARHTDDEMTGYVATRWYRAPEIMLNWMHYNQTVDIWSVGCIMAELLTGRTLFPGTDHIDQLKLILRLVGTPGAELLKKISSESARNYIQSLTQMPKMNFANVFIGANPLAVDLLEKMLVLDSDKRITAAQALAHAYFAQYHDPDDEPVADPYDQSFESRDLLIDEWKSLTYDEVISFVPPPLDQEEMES

Row | Compound | inhibition [%] | IC50
1 | C[C@H](NC(=O)c1cc(F)c(F)cc1F)c1[nH]nc(-c2ccc(F)cc2)c1-c1ccncc1 | 43 | –
2 | C[C@H](NC(=O)NCCc1ccccc1)c1[nH]nc(-c2ccc(F)cc2)c1-c1ccncc1 | 36 | –
3 | O=C(c1ccccc1Cl)N1CCC(c2[nH]nc(-c3ccc(F)cc3)c2-c2ccncc2)CC1 | 85 | –
4 | C[C@H](NC(=O)c1ccc(Cl)cc1Cl)c1[nH]nc(-c2ccc(F)cc2)c1-c1ccncc1 | 28 | –
5 | C[C@@H](NC(=O)C(C)(C)C)c1[nH]nc(-c2ccc(F)cc2)c1-c1ccncc1 | 32 | –
6 | O=C(O)c1ccccc1S(=O)(=O)NCCc1[nH]nc(-c2ccc(F)cc2)c1-c1ccncc1 | 40 | –
7 | C[C@H](NS(=O)(=O)c1ccc(-c2ccccn2)s1)c1[nH]nc(-c2ccc(F)cc2)c1-c1ccncc1 | 92 | –
8 | C[C@H](NC(=O)c1c(F)cccc1F)c1[nH]nc(-c2ccc(F)cc2)c1-c1ccncc1 | 56 | –
9 | CC1(C)[C@H]2CC[C@@]1(CS(=O)(=O)NCc1[nH]nc(-c3ccc(F)cc3)c1-c1ccncc1)C(=O)C2 | 20 | –
10 | Cc1c(Cl)cccc1S(=O)(=O)N[C@H](C)c1[nH]nc(-c2ccc(F)cc2)c1-c1ccncc1 | 71 | –
11 | CCOC(=O)N[C@H](C)c1[nH]nc(-c2ccc(F)cc2)c1-c1ccncc1 | – | 740 nM
12 | Fc1ccc(-c2n[nH]cc2-c2ccnc(-c3c[nH]nc3-c3ccc(F)cc3)c2)cc1 | – | 602 nM
13 | Cc1noc(C)c1C(=O)N[C@H](C)c1[nH]nc(-c2ccc(F)cc2)c1-c1ccncc1 | 73 | –
14 | CNC(=O)CC[C@H](NC(=O)C(C)C)c1[nH]nc(-c2ccc(F)cc2)c1-c1ccncc1 | 25 | –
15 | C[C@H](NC(=O)NCc1ccccc1)c1[nH]nc(-c2ccc(F)cc2)c1-c1ccncc1 | – | 840 nM
16 | CNC(=O)CC[C@H](NC(=O)c1ccno1)c1[nH]nc(-c2ccc(F)cc2)c1-c1ccncc1 | – | > 1000 nM
17 | COc1ccc(CNc2cc(-c3c[nH]nc3-c3ccc(Cl)cc3)ccn2)cc1 | – | 495 nM
18 | COc1cccc(CC(=O)N[C@H](C)c2[nH]nc(-c3ccc(F)cc3)c2-c2ccncc2)c1 | 18 | –
19 | CNC(=O)CC[C@H](NS(=O)(=O)c1ccccc1F)c1[nH]nc(-c2ccc(F)cc2)c1-c1ccncc1 | 1 | –

Row | Compound | inhibition [%] | IC50
20 | O=S(=O)(NCc1[nH]nc(-c2ccc(F)cc2)c1-c1ccncc1)c1cccc(Br)c1 | 90 | –
21 | CCCS(=O)(=O)N[C@H](Cc1ccccc1)c1[nH]nc(-c2ccc(F)cc2)c1-c1ccncc1 | 13 | –
22 | COc1ccc(NC(=O)NCc2[nH]nc(-c3ccc(F)cc3)c2-c2ccncc2)cc1 | 31 | –
23 | CCNC(=O)NCc1[nH]nc(-c2ccc(F)cc2)c1-c1ccncc1 | 28 | –
24 | C[C@H](NC(=O)c1c(F)cc(F)cc1F)c1[nH]nc(-c2ccc(F)cc2)c1-c1ccncc1 | 68 | –
25 | Cn1cc(-c2ccncc2)c(-c2ccc3c(c2)OCO3)n1 | – | 322 nM
26 | C[C@H](NC(=O)c1cc2ccccc2s1)c1[nH]nc(-c2ccc(F)cc2)c1-c1ccncc1 | 48 | –
27 | CCc1ccc(S(=O)(=O)NCc2[nH]nc(-c3ccc(F)cc3)c2-c2ccncc2)cc1 | 8 | –
28 | O=C(NCCCc1[nH]nc(-c2ccc(F)cc2)c1-c1ccncc1)NCCc1ccccn1 | 24 | –
29 | C[C@@H](NC(=O)C1CCC1)c1[nH]nc(-c2ccc(F)cc2)c1-c1ccncc1 | 19 | –
30 | C[C@@H](NC(=O)c1ccc(Cl)cc1)c1[nH]nc(-c2ccc(F)cc2)c1-c1ccncc1 | 36 | –
31 | O=C(NCCCc1[nH]nc(-c2ccc(F)cc2)c1-c1ccncc1)NCCCN1CCCC1=O | – | > 1000 nM
32 | CCCOC(=O)NCc1[nH]nc(-c2ccc(F)cc2)c1-c1ccncc1 | 65 | –
33 | CCCCCCCCS(=O)(=O)NCc1[nH]nc(-c2ccc(F)cc2)c1-c1ccncc1 | 12 | –
34 | Fc1ccc(-c2nn(CCN3CCOCC3)cc2-c2ccncc2)cc1 | – | 1830 nM
35 | O=S(=O)(c1ccccc1)N1CCC(c2[nH]nc(-c3ccc(F)cc3)c2-c2ccncc2)CC1 | 21 | –
36 | O=C(NCc1[nH]nc(-c2ccc(F)cc2)c1-c1ccncc1)c1cccc(Cl)c1Cl | 33 | –
37 | Cc1cccc(C(=O)N[C@@H](C)c2[nH]nc(-c3ccc(F)cc3)c2-c2ccncc2)c1 | 29 | –

The next lines start with the values.

Row | inhibition [%] | IC50 | Compound
38 | 4 | – | CCCCCCCC(=O)NCc1[nH]nc(-c2ccc(F)cc2)c1-c1ccncc1
39 | 65 | – | C[C@@H](NS(=O)(=O)C[C@]12CC[C@@H](CC1=O)C2(C)C)c1[nH]nc(-c2ccc(F)cc2)c1-c1ccncc1
40 | – | > 1000 nM | CC(C)(C)c1ccc(S(=O)(=O)NCc2[nH]nc(-c3ccc(F)cc3)c2-c2ccncc2)cc1
41 | – | > 1000 nM | O=C(NCCc1[nH]nc(-c2ccc(F)cc2)c1-c1ccncc1)c1cccc(C(F)(F)F)c1F
42 | – | 180 nM and 450 nM | Fc1ccc(CNc2cc(-c3cn(CCN4CCOCC4)nc3-c3ccc(F)cc3)ccn2)cc1
43 | 33 | – | C[C@@H](NC(=O)Cc1cccs1)c1[nH]nc(-c2ccc(F)cc2)c1-c1ccncc1
44 | 38 | – | O=C(N[C@H](Cc1ccccc1)c1[nH]nc(-c2ccc(F)cc2)c1-c1ccncc1)c1cccnc1
45 | 79 | – | C[C@H](NS(=O)(=O)c1cccc(Br)c1)c1[nH]nc(-c2ccc(F)cc2)c1-c1ccncc1
46 | – | > 1000 nM | CC(C)C(=O)N[C@H](Cc1ccccc1)c1[nH]nc(-c2ccc(F)cc2)c1-c1ccncc1
47 | 22 | – | C[C@H](NC(=O)c1cccc(C#N)c1)c1[nH]nc(-c2ccc(F)cc2)c1-c1ccncc1
48 | 31 | – | CC(C)c1cc(C(C)C)c(C(=O)N[C@H](C)c2[nH]nc(-c3ccc(F)cc3)c2-c2ccncc2)c(C(C)C)c1
49 | 27 | – | C[C@@H](NC(=O)c1cccc(Br)c1)c1[nH]nc(-c2ccc(F)cc2)c1-c1ccncc1
50 | 60 | – | O=S(=O)(NCc1[nH]nc(-c2ccc(F)cc2)c1-c1ccncc1)c1ccc(C(F)(F)F)cc1
51 | 21 | – | COc1cc(C(=O)NCc2[nH]nc(-c3ccc(F)cc3)c2-c2ccncc2)cc(OC)c1OC
52 | – | 920 nM | CN(C)CCn1cc(-c2ccnc(NCc3ccc(F)cc3)c2)c(-c2ccc(F)cc2)n1
53 | 39 | – | CCCNC(=O)NCc1[nH]nc(-c2ccc(F)cc2)c1-c1ccncc1
54 | 7 | – | N#Cc1cccc(C(=O)NCCc2[nH]nc(-c3ccc(F)cc3)c2-c2ccncc2)c1
55 | 31 | – | C[C@H](NC(=O)c1ccccc1F)c1[nH]nc(-c2ccc(F)cc2)c1-c1ccncc1
56 | 45 | – | CCCCS(=O)(=O)N[C@H](C)c1[nH]nc(-c2ccc(F)cc2)c1-c1ccncc1
57 | 32 | – | C[C@H](NC(=O)c1cc(C(F)(F)F)ccc1F)c1[nH]nc(-c2ccc(F)cc2)c1-c1ccncc1
58 | 29 | – | O=C(NCCc1[nH]nc(-c2ccc(F)cc2)c1-c1ccncc1)c1ccc(F)cc1C(F)(F)F
59 | 3 | – | O=C(N[C@H](Cc1ccccc1)c1[nH]nc(-c2ccc(F)cc2)c1-c1ccncc1)C1CCCC1
60 | 77 | – | C[C@@H](NC(=O)c1ccc(F)cc1F)c1[nH]nc(-c2ccc(F)cc2)c1-c1ccncc1
61 | 17 | – | C[C@H](NC(=O)c1cccc(Cl)c1Cl)c1[nH]nc(-c2ccc(F)cc2)c1-c1ccncc1
62 | 41 | – | CN(C(=O)NCCc1[nH]nc(-c2ccc(F)cc2)c1-c1ccncc1)c1ccccc1
63 | 64 | – | C[C@@H](NC(=O)c1cccc(F)c1F)c1[nH]nc(-c2ccc(F)cc2)c1-c1ccncc1
64 | – | 5000 nM | CS(=O)(=O)NCc1[nH]nc(-c2ccc(F)cc2)c1-c1ccncc1

Row | inhibition [%] | IC50 | Compound
65 | 65 | – | C[C@H](NS(=O)(=O)c1cc(Cl)cc(Cl)c1)c1[nH]nc(-c2ccc(F)cc2)c1-c1ccncc1
66 | 55 | – | CCCNC(=O)N[C@H](C)c1[nH]nc(-c2ccc(F)cc2)c1-c1ccncc1
67 | 91 | – | C[C@@H](NS(=O)(=O)Cc1ccccc1[N+](=O)[O-])c1[nH]nc(-c2ccc(F)cc2)c1-c1ccncc1
68 | 9 | – | CNC(=O)CC[C@H](NC(=O)Nc1c(C)cccc1C)c1[nH]nc(-c2ccc(F)cc2)c1-c1ccncc1
69 | – | 201 nM | Cc1[nH]nc(-c2ccc(Cl)cc2)c1-c1ccncc1
70 | 78 | – | O=C(NCc1[nH]nc(-c2ccc(F)cc2)c1-c1ccncc1)C(c1ccccc1)c1ccccc1
71 | 74 | – | C[C@@H](NS(=O)(=O)c1cccc2cnccc12)c1[nH]nc(-c2ccc(F)cc2)c1-c1ccncc1
72 | 9 | – | Cc1ccccc1C(=O)NCCc1[nH]nc(-c2ccc(F)cc2)c1-c1ccncc1
73 | 63 | – | C[C@@H](NC(=O)c1ccc(C(F)(F)F)cc1)c1[nH]nc(-c2ccc(F)cc2)c1-c1ccncc1
74 | – | 402 nM | Cn1cc(-c2ccncc2)c(-c2cccc(C(F)(F)F)c2)n1
75 | 31 | – | O=S(=O)(c1cccc(Cl)c1)N1CCC(c2[nH]nc(-c3ccc(F)cc3)c2-c2ccncc2)CC1
76 | 28 | – | O=S(=O)(NCCc1[nH]nc(-c2ccc(F)cc2)c1-c1ccncc1)c1cc(Cl)c(Cl)s1
77 | 80 | – | C[C@@H](NS(=O)(=O)c1ccccc1S(C)(=O)=O)c1[nH]nc(-c2ccc(F)cc2)c1-c1ccncc1
78 | – | > 1000 nM | O=C(N[C@H](Cc1ccccc1)c1[nH]nc(-c2ccc(F)cc2)c1-c1ccncc1)c1ccc(F)c(F)c1F
79 | 50 | – | NC(=O)NCc1[nH]nc(-c2ccc(F)cc2)c1-c1ccncc1
80 | 28 | – | C[C@H](NC(=O)Cc1cccs1)c1[nH]nc(-c2ccc(F)cc2)c1-c1ccncc1
81 | – | > 1000 nM | CNC(=O)N[C@H](Cc1ccccc1)c1[nH]nc(-c2ccc(F)cc2)c1-c1ccncc1
82 | 68 | – | C[C@@H](NS(=O)(=O)c1ccc(-c2ccccn2)s1)c1[nH]nc(-c2ccc(F)cc2)c1-c1ccncc1
83 | – | > 1000 nM | CNC(=O)CC[C@H](NC(=O)COC)c1[nH]nc(-c2ccc(F)cc2)c1-c1ccncc1
84 | 80 | – | C[C@@H](NS(=O)(=O)c1cn(C)cn1)c1[nH]nc(-c2ccc(F)cc2)c1-c1ccncc1
85 | – | 2780 nM | O=S(=O)(NCc1[nH]nc(-c2ccc(F)cc2)c1-c1ccncc1)c1ccc(F)cc1
86 | – | 270 nM | O=C(C1CC1)N1CCC(c2[nH]nc(-c3ccc(F)cc3)c2-c2ccncc2)CC1
87 | – | 540 nM | CC(=O)OC(C)(C)C(=O)NCc1[nH]nc(-c2ccc(F)cc2)c1-c1ccncc1
88 | 54 | – | C[C@@H](NS(=O)(=O)[C@@]12CC[C@H](CC1=O)C2(C)C)c1[nH]nc(-c2ccc(F)cc2)c1-c1ccncc1
89 | 12 | – | CSc1cccc(NC(=O)NCc2[nH]nc(-c3ccc(F)cc3)c2-c2ccncc2)c1
90 | 85 | – | C[C@H](NS(=O)(=O)c1ccc(F)c(Cl)c1)c1[nH]nc(-c2ccc(F)cc2)c1-c1ccncc1
